Assay results published in patent US5843481A, “Treatment of proliferative disorders, metastasaes, and drug resistant tumors with vanadate compounds and derivatives or analogues thereof” (priority 1994, dated 1998).

Tests used:
jun = experiment: Northern blot analysis of jun mRNA expression in chondrocytes; format: cell-based, bovine
Description: The cytokine interleukin 1 (IL 1) has been used to identify the intermediate second messengers which regulate the expression of fos and jun.
Although IL 1 stimulated superoxide production, it was not known whether IL 1 induced fos and jun expression was dependent on the production of superoxides. In order to elucidate this possibility, the effect of DPI on fos and jun mRNA levels induced by IL 1 was investigated. RNA from chondrocytes treated with IL 1 in the presence and absence of DPI were analyzed by Northern blot analysis using either fos or collagenase cDNA probes. […] Similar data has been obtained for IL 1 induced jun expression. Furthermore, inhibition of fos and jun expression by DPI was sufficient to suppress IL 1 induced and constitutive collagenase expression.
(§1) Bovine articular chondrocytes were isolated and plated as previously described (Kandel R. A. et al. Biochim. Biophys. Acta. 1053, 130-134, 1990). In order to determine the effect of orthovanadate on IL 1 and PMA (phorbol ester) induced responses, chondrocytes were incubated with orthovanadate (100 μM) for 2 hours before stimulation with IL 1 (10 ng/ml) or PMA ([…]). collagenase production was determined by incubating chondrocytes for 24 hours with IL 1 or PMA and the cell conditioned medium was assayed for collagenase activity using an ELISA procedure as described previously (Kandel et al. supra) PLA2 activity was measured by incorporating ^3 H-arachidonic acid (^3 H-AA) into the cells and then incubating the cells with medium containing 1 mg/ml BSA, either alone or in the presence of IL 1 or PMA, for 10 min. as previously described (Conquer, J. A. […], Biochim. Biophys. Acta. 1134, 1-6). The amount of ^3 H-AA liberated into the supernatant was determined. To measure PGE2 production, chondrocytes were incubated for 6 hours in Ham's F12 medium, either alone or with IL 1 or PMA. The supernatant was analyzed by RIA using an antibody specific for PGE2 (Dr. S. A. Jones, Mount Sinai Hospital, Toronto, Can.). In order to examine the expression of c-fos and c-jun, chondrocytes were incubated for 1 hour in the presence of IL-1, PMA or AA (3 μM). Chondrocytes were washed in PBS and the total RNA extracted as previously described (Cruz. et al, 1991, Biochem. J. 277, 327-330). RNA samples were run on formaldehyde agarose gels and transferred to nylon membrane for northern analysis using cDNA probes for c-fos and c-jun.

MDAY-D2 [1] = experiment: MDAY-D2 tumor growth in mice, three vanadyl compounds, Example 6B; format: in vivo
Description: (§2) In order to examine the ability of vanadyl compounds to reduce tumor formation, growth and metastases, a specific animal model which allows investigation of all of these processes in the same animal was chosen. This model involves the injection of a metastatic haematopoietic cell line, MDAY-D2, into mice subcutaneously. These cells form a tumor at the site of injection and its size can be easily determined. In addition, these cells metastasize to the liver and metastases can be detected histologically after day 17 to 19. This model provides a very sensitive and reproducible approach to investigate the effect of vanadyl compounds on tumor growth and metastases.
In a separate experiment using the same animal model, the effect of orthovanadate, vanadyl sulphate and vanadyl hydroperoxide administration on tumor growth in vivo was examined. On Day 1, 20 mice were injected with 2×10^5 MDAY-D2 cell subcutaneously. The mice were divided into four groups of five mice. At day 5, the animals were injected subcutaneously with 50 μl of water alone or containing 10 mg/ml of orthovanadate, 10 mg/ml of vanadyl sulphate, or 10 mg/ml of vanadyl hydroperoxide. This treatment was continued daily for 16 days. At day 21, the mice were sacrificed and the tumors dissected and weighed.

superoxides and H2O2 = experiment: Levels of superoxides and H2O2 in cells (conclusion of Example 1); format: cell-based, bovine; conditions: conclusion from results
Procedure: as §1, with “Chondrocytes were washed in PBS and the total RNA extracted as previously described (Cruz. et al, 1991, Biochem. J. 277, 327-330). RNA samples were run on formaldehyde agarose gels and transferred to nylon membrane for northern analysis using cDNA probes for c-fos and c-jun.” left out

MDAY-D2 and HTB14 cells = experiment: Viability of proliferating tumor cell lines; format: cell-based, mouse (MDAY-D2); human (HTB14)
Procedure: Fos and jun activity are also required for cellular proliferation in many tumor cell lines. Accordingly, the effect of orthovanadate on adherent cells and cell suspensions were examined. MDAY-D2 (a mouse lymphoid cell line grown in suspension) and HTB14 cells (an adherent human primary astrocytoma cell line) were incubated in media containing 0-50 μM orthovanadate for 48 hours. The cells were harvested and the number of viable cells determined.

MDAY-D2 [2] = experiment: MDAY-D2 tumor growth in mice, Example 6A; format: in vivo
Description: as §2
Using the animal model described above, the effect of subcutaneous administration of orthovanadate on tumor growth was investigated. A total of 15 mice were injected subcutaneously with 1×10^5 MDAY-D2 cells on Day 1. On Day 5, small tumors could be observed at the site of injection. Five mice were injected daily with 50 μl of water alone and 10 mice were injected daily with water containing 10 mg/ml orthovanadate. On day 14, the mice were sacrificed. The tumors were removed from all the animals, photographed, and weighed. FIG. 11 compares sizes of tumors from two untreated and two orthovanadate treated mice. […] In animals treated with water alone, four mice had tumors weighing between 1.18 and 1.68 gms.

[3] = tested on: proliferating chondrocytes; experiment: Viability of proliferating chondrocytes (low cell density); format: cell-based, bovine; conditions: 0-50 μM, 48 hours; FIG. 6
Procedure: As described in example 1, orthovanadate inhibited fos, jun and collagenase expression. If fos and jun expression are required for cellular proliferation, then orthovanadate should inhibit chondrocyte proliferation. In order to compare the effect of orthovanadate on non-proliferating and proliferating chondrocytes, chondrocytes were plated at both high cell density (2×10^6 to 4×10^6 cells/per well on a six well plate) (nonproliferating) and at a lower cell density (5×10^5 to 1×10^6 cells/per well on a six well plate) (proliferating) and then maintained for 48 hours. The cells were then incubated in media (HAMS F12) containing 0-50 μM Orthovanadate for an additional 48 hours. The cells were harvested and the number of viable cells determined.

[4] = Dose required to reach serum concentration highly toxic to cancer cells; design: species or system animals; conditions: in vivo
collagenase = experiment: Collagenase production by chondrocytes (ELISA of conditioned medium); format: cell-based, bovine; conditions: orthovanadate 100 uM, 2 hours before stimulation
Procedure: as §1, with “Chondrocytes were washed in PBS and the total RNA extracted as previously described (Cruz. et al, 1991, Biochem. J. 277, 327-330). RNA samples were run on formaldehyde agarose gels and transferred to nylon membrane for northern analysis using cDNA probes for c-fos and c-jun.” left out

## [O]=[V]([O-])([O-])[O-] [orthovanadate]
jun; orthovanadate 100 μM, FIGS. 4 and 18
  IL 1, PMA and AA induced c-jun expression: completely inhibited
jun; summary statement
  jun expression in response to factors such as IL 1 or arachidonic acid: completely inhibit
MDAY-D2 [1]; 10 mg/ml s.c. daily
  effect on tumor growth, in words: most efficacy in reducing tumor growth
MDAY-D2 [1]; 10 mg/ml s.c., day 21
  mice without detectable tumors: one mouse did not have detectable tumors
MDAY-D2 [1]; 10 mg/ml, 50 μl s.c. daily for 16 days, groups of five mice
  animals that died: One animal died
Superoxides and H2O2
  levels of superoxides and H2O2 in cells: indirectly reduce
MDAY-D2 and HTB14 cells
  time by which cell death was observed: ≤ 24 h
MDAY-D2 and HTB14 cells; 0-50 μM, 48 hours, FIG. 7
  cell death, concentration dependence: concentration dependent increase in cell death
MDAY-D2 and HTB14 cells; within 3 days of continuous treatment
  cell death completeness: over 98%
MDAY-D2 [2]; 10 mg/ml s.c. daily, day 14, five of 10 mice
  tumor size (five mice): less than 0.16 gms
MDAY-D2 [2]; 10 mg/ml, 50 μl s.c. daily, day 14, of 10 mice, FIG. 12
  mice without detectable tumors: 2 mice
MDAY-D2 [2]; FIG. 11
  tumor size of treated mice versus untreated: either undetectable or considerably smaller
[3]
  toxicity to cells plated at low cell density (proliferating): toxic
[4]
  dose required to reach serum concentrations highly toxic to cancer cells: at least 0.2 mg/kg
collagenase
  collagenase production (IL 1 or PMA): completely inhibited
